In ChEMBL document CHEMBL5108001, “Multivalent glucosidase inhibitors based on perylene bisimide and iminosugar conjugates” (Eur J Med Chem, 2022):

Experiments:
[1] = Toxicity in C57BL/6J mouse assessed as spleen pathological morphological changes at 2 mg/kg administered for 7 days by hematoxylin-eosin staining based analysis; format: organism-based; details: in vivo, 168 h, time 7 day
[2] = Toxicity in C57BL/6J mouse assessed as heart pathological morphological changes at 2 mg/kg administered for 7 days by hematoxylin-eosin staining based analysis; format: organism-based; details: in vivo, 168 h, time 7 day
[3] = Toxicity in C57BL/6J mouse assessed as change in CK level at 2 mg/kg administered for 7 days; format: organism-based; details: in vivo, 168 h, time 7 day
[4] = Cytotoxicity against human GES1 cells assessed as cell viability at 125 uM; format: toxicity, cell-based; details: read-out: Activity
[5] = Inhibition of Aspergillus niger alpha-glucosidase by Lineweaver-Burk plot analysis
[6] = Hepatotoxicity in C57BL/6J mouse assessed as change in serum ALP level at 2 mg/kg administered for 7 days; format: toxicity, organism-based; details: in vivo, 168 h, time 7 day
[7] = Toxicity in C57BL/6J mouse assessed as lungs pathological morphological changes at 2 mg/kg administered for 7 days by hematoxylin-eosin staining based analysis; format: organism-based; details: in vivo, 168 h, time 7 day
[8] = target: T1, Alpha-mannosidase (Canavalia ensiformis, UniProt C0HJB3); assay: Inhibition of jack bean alpha-mannosidase
T1 sequence (C0HJB3 whole entry): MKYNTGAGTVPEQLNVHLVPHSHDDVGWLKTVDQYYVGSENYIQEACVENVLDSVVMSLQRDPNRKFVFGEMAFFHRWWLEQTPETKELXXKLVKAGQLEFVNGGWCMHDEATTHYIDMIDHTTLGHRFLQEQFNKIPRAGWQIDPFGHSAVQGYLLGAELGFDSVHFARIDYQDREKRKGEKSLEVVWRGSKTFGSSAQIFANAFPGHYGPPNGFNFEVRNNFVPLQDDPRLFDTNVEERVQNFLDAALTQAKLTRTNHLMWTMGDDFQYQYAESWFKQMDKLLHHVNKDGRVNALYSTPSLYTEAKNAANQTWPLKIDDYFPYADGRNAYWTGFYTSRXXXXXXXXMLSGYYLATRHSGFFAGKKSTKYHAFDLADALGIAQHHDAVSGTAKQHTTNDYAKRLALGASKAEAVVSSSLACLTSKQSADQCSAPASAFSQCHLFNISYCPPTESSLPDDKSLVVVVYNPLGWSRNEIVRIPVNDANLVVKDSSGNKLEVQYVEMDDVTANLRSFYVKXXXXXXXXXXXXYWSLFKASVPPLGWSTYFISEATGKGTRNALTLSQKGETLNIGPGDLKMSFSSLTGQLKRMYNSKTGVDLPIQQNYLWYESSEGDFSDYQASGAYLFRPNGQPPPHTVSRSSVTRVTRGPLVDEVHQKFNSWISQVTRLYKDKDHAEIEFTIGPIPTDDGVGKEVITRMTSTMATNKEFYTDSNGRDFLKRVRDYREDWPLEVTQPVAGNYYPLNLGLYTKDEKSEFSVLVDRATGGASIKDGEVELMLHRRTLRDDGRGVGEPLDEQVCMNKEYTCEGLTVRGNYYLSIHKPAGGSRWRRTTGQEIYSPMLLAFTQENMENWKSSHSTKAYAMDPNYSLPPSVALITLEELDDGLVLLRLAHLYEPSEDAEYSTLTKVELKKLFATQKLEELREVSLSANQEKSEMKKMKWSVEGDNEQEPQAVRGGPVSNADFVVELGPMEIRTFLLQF

[9] = Toxicity in C57BL/6J mouse assessed as change in blood HDL level at 2 mg/kg administered for 7 days; format: organism-based; details: in vivo, 168 h, time 7 day
[10] = test system: Oryza sativa; assay: Potency index, ratio of Miglitol Ki to test compound Ki for inhibition of rice alpha-glucosidase measured per DNJ unit
[11] = Toxicity in C57BL/6J mouse assessed as change in body weight at 2 mg/kg administered for 7 days; format: organism-based; details: in vivo, 168 h, time 7 day
[12] = Hepatotoxicity in C57BL/6J mouse assessed as change in serum AST level at 2 mg/kg administered for 7 days; format: toxicity, organism-based; details: in vivo, 168 h, time 7 day
[13] = test system: Mus musculus; assay: Hypoglycemic activity in C57BL/6J mouse assessed as reduction in postprandial blood glucose level at 1 mg/kg measured after 15 mins by maltose tolerance test; format: functional; details: 0.25 h
[14] = Renal toxicity in C57BL/6J mouse assessed as change in blood uric acid level at 2 mg/kg administered for 7 days; format: organism-based; details: in vivo, 168 h, time 7 day
[15] = test system: Mus musculus; assay: Hypoglycemic activity in C57BL/6J mouse assessed as postprandial blood glucose level at 0.5 mg/kg measured after 30 mins by maltose tolerance test (reference value: 368.49 +/-31.28 mg/dl); format: functional
[16] = Toxicity in C57BL/6J mouse assessed as change in GLU level at 2 mg/kg administered for 7 days; format: organism-based; details: in vivo, 168 h, time 7 day
[17] = test system: Mus musculus; assay: Hypoglycemic activity in C57BL/6J mouse assessed as postprandial blood glucose level at 1 mg/kg measured after 30 mins by maltose tolerance test (reference value: 368.49 +/-31.28 mg/dl); format: functional; details: 0.5 h
[18] = Toxicity in C57BL/6J mouse assessed as change in blood triglyceride level at 2 mg/kg administered for 7 days; format: organism-based; details: in vivo, 168 h, time 7 day
[19] = test system: Mus musculus; assay: Hypoglycemic activity in C57BL/6J mouse assessed as reduction in postprandial blood glucose level at 0.5 mg/kg measured after 15 mins by maltose tolerance test; format: functional; details: 0.25 h
[20] = target: T2, Alpha-mannosidase (Canavalia ensiformis) (UniProt C0HJB3); assay: Potency index, ratio of Miglitol Ki to test compound Ki for inhibition of jack bean alpha-mannosidase measured per DNJ unit
T2 sequence (whole entry): T1 sequence (C0HJB3 whole entry)

[21] = Toxicity in C57BL/6J mouse assessed as kidneys pathological morphological changes at 2 mg/kg administered for 7 days by hematoxylin-eosin staining based analysis; format: organism-based; details: in vivo, 168 h, time 7 day
[22] = Toxicity in C57BL/6J mouse assessed as hepatic pathological changes by measuring hepatocytes distributed radially around the central veins at 2 mg/kg administered for 7 days by hematoxylin-eosin staining based analysis; format: organism-based; details: in vivo, 168 h, time 7 day
[23] = Inhibition of rice alpha-glucosidase by Lineweaver-Burk plot analysis; set-up: species or system Oryza sativa
[24] = test system: Mus musculus; assay: Hypoglycemic activity in C57BL/6J mouse assessed as postprandial blood glucose level at 2 mg/kg measured after 30 mins by maltose tolerance test (reference value: 368.49 +/-31.28 mg/dl); format: functional; details: 0.5 h
[25] = Renal toxicity in C57BL/6J mouse assessed as change in blood urea level at 2 mg/kg administered for 7 days; format: organism-based; details: in vivo, 168 h, time 7 day
[26] = Toxicity in C57BL/6J mouse assessed as reduction in blood LDL level at 2 mg/kg administered for 7 days; format: organism-based; details: in vivo, 168 h, time 7 day
[27] = test system: Mus musculus; assay: Hypoglycemic activity in C57BL/6J mouse assessed as reduction in postprandial blood glucose level per DNJ nit at 0.5 to 2 mg/kg measured after 15 mins by maltose tolerance test relative to Miglitol; format: functional; details: dose 0.5-2 mg/kg, 0.25 h
[28] = test system: Mus musculus; assay: Hypoglycemic activity in C57BL/6J mouse assessed as reduction in postprandial blood glucose level at 1 mg/kg measured after 30 mins by maltose tolerance test; format: functional; details: 0.5 h
[29] = Inhibition of alpha-glucosidase in Kunming mouse using p-nitrophenyl-alpha-glycopyranoside as substrate by Lineweaver-Burk plot analysis
[30] = test system: Mus musculus; assay: Hypoglycemic activity in C57BL/6J mouse assessed as reduction in postprandial blood glucose level per DNJ unit at 0.5 to 1 mg/kg measured after 30 mins by maltose tolerance test relative to Miglitol; format: functional; details: dose 0.5-1 mg/kg
[31] = test system: Mus musculus; assay: Hypoglycemic activity in C57BL/6J mouse assessed as reduction in postprandial blood glucose level at 2 mg/kg measured after 15 mins by maltose tolerance test; format: functional; details: 0.25 h
[32] = test system: Mus musculus; assay: Hypoglycemic activity in C57BL/6J mouse assessed as reduction in postprandial blood glucose level at 0.5 mg/kg measured after 30 mins by maltose tolerance test; format: functional; details: 0.5 h
[33] = Toxicity in C57BL/6J mouse assessed as change in blood cholesterol level at 2 mg/kg administered for 7 days; format: organism-based; details: in vivo, 168 h, time 7 day

Ki [5]: 8040 nM
Ki [8]: 120 nM
Ratio Ki [10]: 3.6
Ratio Ki [20]: 175
Ki [23]: 10 nM
Ki [29]: 310 nM
Structure (SMILES): O=C1c2cc(Cl)c3c4c(Oc5ccc(OCc6cn(CCCN7C[C@H](O)[C@@H](O)[C@H](O)[C@H]7CO)nn6)cc5)cc5c6c(cc(Oc7ccc(OCc8cn(CCCN9C[C@H](O)[C@@H](O)[C@H](O)[C@H]9CO)nn8)cc7)c(c7c(Oc8ccc(OCc9cn(CCCN%10C[C@H](O)[C@@H](O)[C@H](O)[C@H]%10CO)nn9)cc8)cc(c2c37)C(=O)N1Cc1cn(CCCN2C[C@H](O)[C@@H](O)[C@H](O)[C@H]2CO)nn1)c64)C(=O)N(Cc1cn(CCCN2C[C@H](O)[C@@H](O)[C@H](O)[C@H]2CO)nn1)C5=O
Activity [1]: Non-Toxic
Activity [2]: Non-Toxic
Activity [3]: Non-Toxic
viability at 125 µM [4]: 92%
Activity [6]: Non-Toxic
Activity [7]: Non-Toxic
Activity [9]: Non-Toxic
Activity [11]: Non-Toxic
Activity [12]: Non-Toxic
inhibition in vivo at 1 mg/kg [13]: 26.9%
Activity [14]: Non-Toxic
Activity [15]: 323.49 mg/dL
Activity [16]: Non-Toxic
Activity [17]: 304.2 mg/dL
Activity [18]: Non-Toxic
inhibition in vivo at 0.5 mg/kg [19]: 18%
Activity [21]: Non-Toxic
Activity [22]: Non-Toxic
Activity [24]: 287.49 mg/dL
Activity [25]: Non-Toxic
Activity [26]: 0.24 mmol/L
fold change (FC) [27]: 1.6
inhibition in vivo at 1 mg/kg [28]: 23.8%
fold change (FC) [30]: 1.5
inhibition in vivo at 2 mg/kg [31]: 31.9%
inhibition in vivo at 0.5 mg/kg [32]: 12.3%
Activity [33]: Non-Toxic
